Structures are written as SMILES. Several values for one entry are separate records, joined by “and”; a condition that tells them apart may be missing. Equal values may be shown once. Read-outs that look alike come from different tables or passages of the source.

The target in data set [1] is human CB1. Particulars: one per compound, cited from earlier work.
Data set [2] addresses T1, human CB1 receptor (Homo sapiens, UniProt P21554). As to the kind of experiment: biochemical. As for the experimental part: Ten compound concentrations equally spaced on a log scale (10^–3 to 10^–9 M) were incubated in triplicate with membrane preparations from CHO-K1 cells expressing the human CB1 receptor (5 μg per well) (Perkin Elmer, cat. no. ES-110-M400UA) in an assay buffer containing 50 mM Tris-HCl, pH = 7.4, 1 mM EGTA, 3 mM MgCl2, 100 mM NaCl and 30 μM GDP) in the presence of 0.08 nM [^35S]GTPγS (specific activity: 1250 Ci/mmole, Perkin Elmer). Non-specific binding was determined with 100 μM of unlabeled GTPγS. […] The final DMSO concentration in the assay was 5%. The reaction mixture was incubated for 90 min. at 30°C . Next, the samples were deposited under vacuum with the FilterMate Harvester® (Perkin Elmer, USA) onto Unifilter® GF/B Plates (Perkin Elmer, USA) presoaked with wash buffer (50 mM Tris-HCl, pH = 7.4). The samples were then rapidly washed with 2 ml of wash buffer. Filter plates were dried for 30 min. at 50 °C and 40 μL of MicroScint PS (Perkin Elmer, USA) scintillation fluid was added to each well. Radioactivity was counted in a Trilux MicroBeta^2 counter (Perkin Elmer, USA). Data were analyzed with GraphPad Prism 5.0 software. Curves were fitted with three-parameter non-linear regression model.

In data set [3] the target is T1, human CB1 receptor. Format: biochemical. Particulars: in words.
Data set [4] deals with T1, human CB1 receptor. As to the kind of experiment: biochemical. Type of data set: binding. Also on record: purchased Merck HTS019M; host or cells: Chem-1 cells. An excerpt:
Compounds selected for the in vitro binding assay from the first iteration of VS were purchased via MolPort, SIA, Riga, Latvia and Biopurify Phytochemicals Ltd., Chengdu, China. Compounds from the second iteration were purchased from MolPort, SIA, Riga, Latvia and Chemspace, SIA, Riga, Latvia (Supporting Information S3). […] Membranes from cells overexpressing the human CB1 receptor (ChemiScreen CB1 Cannabinoid Receptor Membrane Preparation, cat. no. HTS019M) as well as MgCl2, CaCl2, Trizma Base, NaCl, polyethylenimine (PEI) and dimethyl sulfoxide (DMSO) were purchased from Merck (USA). Bovine serum albumin (BSA) was obtained from Pol-Aura (Poland).
Compounds were dissolved in 50% DMSO and added to the reaction mixture at 10 concentrations equally spaced on a log scale (10^–10 to 10^–4.5 M). The final DMSO concentration was 5%. […] The reaction mixture (500 μL) was incubated for 1.5 h at 30°C . Before harvesting, Whatman GF/B Filter Paper (Brandel, USA) was presoaked with 0.33% PEI buffer for 30 min. and then washed with 2 ml of 50 mM Tris-HCl buffer (pH = 7.4) and 0.5% BSA to minimize non-specific binding. The reaction was terminated by depositing the samples onto GF/B filter paper with the Brandel M-24 Cell Harvester (Brandel, USA). Samples were then rapidly washed 3 times with 2 ml of ice-cold wash buffer (50 mM Tris-HCl pH 7.4, 500 mM NaCl) to separate the bound radioligand from free. Filters were then air-dried for 1 h at 60°C . After drying, filter discs were placed on a flexible 24-well plate and 500 μL of EcoScint-20 scintillant was added to each well. Plates were counted (2 min. per well) in a Trilux MicroBeta^2 2450 scintillation counter (Perkin Elmer, USA). Data were analyzed with GraphPad Prism 5.0 software.[89]

On the set-up of data set [5]: method as in MedChemExpress product data sheet. Particulars: ref MedChemExpress product data sheet, listed as Flupentixol dihydrochloride, cited from earlier work.
Setting [6] is: CB1 antagonists/inverse agonists, Table S9, ref SI (20)-(38).
Where [7] appears, read: CB1 agonists, Table S8, ref SI (1)-(19).
Where [8] appears, read: [3H]CP-55,940 displacement, membranes of Chem-1 cells expressing human CB1, read-out: pKi ± SEM (converted).
The mark [9] stands for this setting: CHO-K1 membranes, WIN 55,212-2 (3 μM) as stimulating ligand, read-out: CB1 inhibition pIC50 (converted).
Where [10] appears, read: read-out: CB1 inhibition IC50 (μM, 95% CI).

T1 sequence (P21554 whole entry): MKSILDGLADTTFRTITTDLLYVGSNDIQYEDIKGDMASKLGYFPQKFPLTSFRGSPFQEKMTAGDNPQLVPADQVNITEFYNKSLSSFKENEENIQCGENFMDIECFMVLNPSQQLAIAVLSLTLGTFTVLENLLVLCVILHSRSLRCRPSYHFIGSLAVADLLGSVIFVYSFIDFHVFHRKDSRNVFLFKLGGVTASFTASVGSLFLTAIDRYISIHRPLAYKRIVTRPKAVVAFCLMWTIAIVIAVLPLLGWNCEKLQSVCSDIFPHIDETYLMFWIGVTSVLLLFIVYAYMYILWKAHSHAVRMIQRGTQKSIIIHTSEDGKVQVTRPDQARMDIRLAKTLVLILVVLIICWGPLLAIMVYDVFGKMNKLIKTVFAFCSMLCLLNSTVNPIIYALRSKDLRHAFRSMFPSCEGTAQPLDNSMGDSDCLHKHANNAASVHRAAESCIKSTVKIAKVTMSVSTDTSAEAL

With `Cc1c(C(=O)NN2CCCCC2)nn(-c2ccc(Cl)cc2Cl)c1-c1ccc(C#CCCO[N+](=O)[O-])cc1` [AM-6538], the Ki in data set [1] (setting [6]) was 3.4 nM.

For `Cc1c(C(=O)NN2CCS(=O)(=O)CC2)nn(-c2ccc(Cl)cc2Cl)c1-c1ccc(C#CCCC#N)cc1` [AM-6545], the Ki in data set [1] (setting [6]) was 1.7 nM.

With `CC1=CC[C@@H]2[C@@H](C1)c1c(O)cc(C(C)(C)CCCCCCBr)cc1OC2(C)C` [AM-11542], in data set [1] (setting [7]), the Ki was 0.11 nM.

Turning to `CCOc1ccc(Cc2nc3cc(N(C)S(=O)(=O)c4cccs4)ccc3n2CC2CCCCC2)nc1` [AZ-11713908], the Ki in data set [1] (setting [7]) is 3 nM.

Take `CCCCCCC(C)(C)c1cc(O)c2c(c1)OC(C)(C)[C@@H]1CC=C(C(=O)O)C[C@@H]21` [Ajulemic acid]: the Ki in data set [1] (setting [7]) is 5.7 nM.

With `CCCCC/C=C\C/C=C\C/C=C\C/C=C\CCCC(=O)NCCO` [Anandamide], the Ki in data set [1] (setting [7]) is 70 nM.

Consider `O=S(=O)(CCCC(F)(F)F)Oc1cccc(Oc2cccc3c2C[C@H](CO)C3)c1` [BAY 38-7271], for which, in data set [1] (setting [7]), the Ki was 2.91 nM.

In the case of `N#Cc1c(Oc2cccc(OS(=O)(=O)CCCC(F)(F)F)c2)cccc1C(F)(F)F` [BAY 59-3074], the Ki in data set [1] (setting [7]) was 48.3 nM.

Turning to `Cc1nc2c(-c3ccc(Cl)cc3)n(-c3ccccc3Cl)nc2c(=O)n1CC(F)(F)F` [CHEMBL201602], the Ki in data set [1] (setting [6]) was 0.6 nM.

In the case of `Cc1c(C(=O)NN2CCCCC2)nn(-c2ccc(Cl)cc2Cl)c1-c1ccc(N)cc1` [CHEMBL349955], the Ki in data set [1] (setting [6]) is 81.5 nM.

Consider `CC(C)N1CCOc2c(nn(-c3ccccc3Cl)c2-c2ccc(Cl)cc2)C1=O` [CHEMBL482741], for which the Ki in data set [1] (setting [6]) is 1.3 nM.

As for `CCNC1(C(N)=O)CCN(c2cnc(-c3ccc(OCC)cc3)c(-c3ccccc3Cl)n2)CC1` [CHEMBL495891], in data set [1] (setting [6]), the Ki is 15 nM.

Take `CCNC1(C(N)=O)CCN(c2cnc(-c3ccc(Cl)cc3)c(-c3ccc(Cl)cc3Cl)n2)CC1` [CHEMBL496293]: the Ki in data set [1] (setting [6]) is 0.91 nM.

Consider `CCNC1(C(N)=O)CN(c2cnc(-c3ccc(C(F)(F)F)cc3)c(-c3ccnc(Cl)c3)n2)C1` [CHEMBL498783], for which the Ki in data set [1] (setting [6]) was 1.2 nM.

As to `Cc1c(-c2cn(-c3ccccc3)cn2)nn(-c2ccccc2Cl)c1-c1ccc(Cl)cc1` [CHEMBL568221], in data set [1] (setting [6]), the Ki was 3.8 nM.

Consider `CCCCCCC(C)(C)c1ccc([C@@H]2C[C@H](O)C[C@@H]3CC[C@H](CO)C[C@H]32)c(O)c1` [CP-55,244], for which the Ki in data set [1] (setting [7]) was 1 nM.

For the molecule `COc1cc(O)c2c(=O)cc(-c3ccc(OC)c(-c4c(O)cc(O)c5c(=O)cc(-c6ccc(O)cc6)oc45)c3)oc2c1` [Compound 15, ginkgetin], the IC50 in data set [2] (CB1 inhibition IC50 (μM, 95% CI)) came out at 63 µM. The intrinsic activity result in data set [3] is given as “antagonists”. The Ki is 8.6 µM in data set [4] (Ki (μM, 95% CI)) and 8.71 µM in data set [4] (setting [8]).

As usually defined, the Emax is the greatest response seen or fitted, relative to the assay's reference. In the case of `COc1cc(-c2c3cn[nH]c3nc3c2oc2c(O)c(O)ccc23)ccc1OCc1ccc(C(C)C)cc1` [Compound 30], in data set [2] (setting [9]), the IC50 was 2.09 µM. The Emax in data set [2] (CHO-K1 membranes, read-out: CB1 stimulation Emax (%)) is 126 ± 5%. The EC50 in data set [2] (CHO-K1 membranes, read-out: CB1 stimulation pEC50 (converted)) is 417 nM. Besides, the intrinsic activity result in data set [3] is reported as “mixed CB1 partial agonist/antagonist”. Besides, the Ki was 0.8 µM in data set [4] (Ki (μM, 95% CI)) and 0.851 µM in data set [4] (setting [8]).

Consider `COc1ccc([C@@H](CC(=O)NCc2cccc3[nH]ccc23)c2cc3c(cc2O)OCO3)cc1` [Compound 32], for which the figures for the IC50 in data set [2] (setting [9]) and in data set [2] (setting [10]) were 33.1 µM and 40 µM, respectively. Moreover, the intrinsic activity entry in data set [3] is reported as “antagonists”. For the same molecule, the Ki in data set [4] (Ki (μM, 95% CI)) was 6.8 µM; in data set [4] (setting [8]), 6.31 µM.

Broadly, the Solubility is the concentration that dissolves in the medium under given conditions. For the molecule `OCCN1CCN(CC/C=C2/c3ccccc3Sc3ccc(C(F)(F)F)cc32)CC1` [Compound 33, Flupentixol], the Solubility in data set [5] (10% DMSO >> 40% PEG300 >> 5% Tween-80 >> 45% saline) is ≥ 2.5 mg/mL and ≥ 4.93 mM; in data set [5] (10% DMSO >> 90% (20% SBE-β-CD in saline)) it was ≥ 2.5 mg/mL and ≥ 4.93 mM; in data set [5] (10% DMSO >> 90% corn oil), ≥ 4.93 mM and ≥ 2.5 mg/mL. Besides, the “Solubility in H2O” value in data set [5] (in vitro, need ultrasonic) was 100 mg/mL and 197.07 mM. Further, the “Solubility in DMSO” value in data set [5] (in vitro) was 33.33 mg/mL and 65.68 mM. Also, the “pKi ± SEM” value in data set [4] ([3H]CP-55,940 displacement, membranes of Chem-1 cells expressing human CB1) is recorded as 4.27 ± 0.04. Further, in data set [4] (read-out: Ki (μM, 95% CI)), the Ki is 53 µM.

`COc1ccccc1C(CCNC(C)c1ccc(Cl)cc1)c1ccc(OC(C)C)cc1` (stereo not drawn) [Compound 34]: the IC50 in data set [2] (setting [9]) is 3.72 µM. The intrinsic activity result in data set [3] is on record as “antagonists”. Besides, the Ki in data set [4] (setting [8]) was 2.69 µM.

`COc1ccc(-c2cc(-c3ccccc3)cc(-c3ccccc3O)n2)c(OC)c1` [Compound 38]: the IC50 in data set [2] (setting [10]) is 140 µM. The intrinsic activity entry in data set [3] was “antagonists”. Further, the Ki in data set [4] (setting [8]) was 2.51 µM.

As for `COc1cccc2c1ccn2CCNC(=O)[C@H](Cc1cn(C)c2ccccc12)NC(=O)OC(C)(C)C` [Compound 43], the IC50 in data set [2] (setting [9]) is 1.86 µM. Besides, the intrinsic activity entry in data set [3] is “antagonists”. In data set [4] (Ki (μM, 95% CI)), this molecule registered a Ki of 6.6 µM.

Consider `CS(=O)(=O)N(c1cc(F)cc(F)c1)C1CN(C(c2ccc(Cl)cc2)c2ccc(Cl)cc2)C1` [Drinabant], for which the Ki in data set [1] (setting [6]) is 11 nM.

Consider `O=C(c1ccc2c(c1)c1ccccc1n2CCCCCF)c1cccc2ccccc12` [EG-2201], for which the Ki in data set [1] (setting [7]) was 22.4 nM.

As for `CCCCCCC(C)(C)c1cc(O)c2c(c1)OC(C)(C)[C@@H]1CC=C(CO)C[C@@H]21` [HU-210], the Ki in data set [1] (setting [7]) was 0.06 nM.

`CN=C(NS(=O)(=O)c1ccc(Cl)cc1)N1C[C@H](c2ccccc2)C(c2ccc(Cl)cc2)=N1` [Ibipinabant]: in data set [1] (setting [6]), the Ki was 7.8 nM.

As to `CC(C)[C@H](N=C(NS(=O)(=O)c1ccc(Cl)cc1)N1C[C@H](c2ccccc2)C(c2ccc(Cl)cc2)=N1)C(N)=O` [JD-5037], the Ki in data set [1] (setting [6]) was 0.35 nM.

As for `CCCCCn1cc(C(=O)c2cccc3ccccc23)c2ccccc21` [JWH-018], in data set [1] (setting [7]), the Ki was 9 nM.

`CCCCCCn1cc(C(=O)c2cccc3ccccc23)cc1-c1ccccc1` [JWH-147]: the Ki in data set [1] (setting [7]) was 11 nM.

Consider `CCCCCn1cc(C(=O)c2cccc3ccccc23)cc1-c1ccccc1F` [JWH-307], for which the Ki in data set [1] (setting [7]) is 7.7 nM.

With `COC(=O)[C@@H](NC(=O)c1ccc2c(c1)c1ccccc1n2CC1CCCCC1)C(C)(C)C` [MDMB-CHMCZCA], the Ki in data set [1] (setting [7]) was 5.75 nM.

Take `C/C(N)=N\C(=N/S(=O)(=O)c1ccc(C(F)(F)F)cc1)N1C[C@H](c2ccccc2)C(c2ccc(Cl)cc2)=N1` [MRI-1867]: the Ki in data set [1] (setting [6]) is 2.3 nM.

`CCCCC/C=C\C/C=C\C/C=C\C/C=C\CCCCOC(CO)CO` [Noladin ether]: the Ki in data set [1] (setting [7]) was 25 nM.

Consider `O=C(NCc1ccc(F)cc1)c1ccc(S(=O)(=O)n2cc(N3CCCCC3)c3ccccc32)cc1` [PipISB], for which the Ki in data set [1] (setting [6]) was 1.5 nM.

Turning to `CCc1c(C(=O)NN2CCCCC2)nn(-c2ccc(Cl)cc2Cl)c1-c1ccc(Br)cc1` [Surinabant], the Ki in data set [1] (setting [6]) is 3.5 nM.

Consider `C[C@H](NC(=O)C(C)(C)Oc1ccc(C(F)(F)F)cn1)[C@@H](Cc1ccc(Cl)cc1)c1cccc(C#N)c1` [Taranabant], for which the Ki in data set [1] (setting [6]) is 0.13 nM.

In the case of `CCCCCn1cc(C(=O)C2C(C)(C)C2(C)C)c2ccccc21` [UR-144], the Ki in data set [1] (setting [7]) is 29 nM.

With `CC1(C)C(C(=O)c2cn(CCCCCF)c3ccccc23)C1(C)C` [XLR-11], the Ki in data set [1] (setting [7]) was 24 nM.
